Laboratory results: patent publication US9260481B2, “Peptide derivatives as antibiotics” (priority 2011, dated 2016)
≈ marks a conversion by molar mass, not a printed value.

Legend:
[1] = tested on: S. aureus ATCC 25923; assay type: cell-based, Staphylococcus aureus; details: for MIC antibiotic alone: S. aureus ATCC 25923, checkerboard, ~10^4 CFU/mL
Text: (§1) Vancomycin, rifampicin, kanamycin, gentamicin, ampicillin, ciprofloxacin and tetracycline (Sigma-Aldrich) were provided as standard powders by the manufacturers.

[2] = tested on: P. aeruginosa; assay: Resistance profile of multiresistant clinical isolates; assay type: cell-based, Pseudomonas aeruginosa; set-up: key: R: resistant; S: sensitive; I: intermediate
[3] = tested on: S. aureus; assay: as above; assay type: cell-based, Staphylococcus aureus; set-up: key: R: resistant; S: sensitive; I: intermediate
[4] = tested on: S. aureus Smith ATCC 13709; assay: Acute lethal infection in mice; assay type: in vivo, ICR mice
Protocol: Female ICR mice ordered from Harlan Laboratories (Indianapolis, Ind.) weighing 19-21 g were used in experiments of acute lethal infection. Mice were fully immunocompetent. Infection was induced by inoculating intraperitoneally in mice a bacterial suspension of S. aureus Smith ATCC 13709. The bacterial challenges (ca 5 log10 CFU/mouse) were given suspended in 0.5 mL of 20% hog mucin. […] Mortality was tracked out to 5 days post challenge. Animals that remained surviving at the end of the study were humanely euthanized.

[5] = tested on: P. aeruginosa ATCC 27853; assay: Acute lethal infection in mice; assay type: in vivo, BALB/c mice; details: P. aeruginosa infection; Tobramycin […] IP
Protocol: Female BALB/c mice ordered from Harlan Laboratories (Indianapolis, Ind.) weighing 19-21 g were used in experiments of acute lethal infection. Mice were fully immunocompetent. Infection was induced by inoculating intraperitoneally in mice a bacterial suspension of P. aeruginosa ATCC 27853. The bacterial challenges (8.6 log10 CFU/mouse) were given suspended in 0.1 mL sterile saline. Treatments were administered once 1 hour after challenge via IV injection (Tobramycin was administered via IP injection immediately after challenge) (Table 13). Mortality was tracked out to 2 days post challenge. Animals that remained surviving at the end of the study were humanely euthanized.

[6] = tested on: K. pneumoniae ATCC 43816; assay type: cell-based, Klebsiella pneumoniae; details: for MIC antibiotic alone: K. pneumoniae ATCC 43816, checkerboard, ~10^4 CFU/mL; for Combinations Odilomycin/antibiotic: Odilomycin concentration: Odilomycin A part of the inhibitory combination with the labelled antibiotic
Text: as §1

[7] = tested on: Staphylococcus aureus; assay: microbe, parasite or virus in culture; details: Staphylococcus aureus
Protocol: The minimal inhibitory concentrations (MIC) were determined according to the Clinical and Laboratory Standards Institute (CLSI) conditions guidelines detailed in Table 7. Assays were performed in triplicate.
Preparation of Inocula. Five to 10 well-isolated colonies were picked and resuspended in 3 ml sterile saline. The inoculum was re-suspended by vigorous shaking on a vortex mixer for 15 s. Turbidity was adjusted to McFarland standard 0.5 ([…]). The inoculum was further diluted in the appropriate media (Table 7) to give a final inoculum in each well of ˜2-8×10^5 CFU/ml.
Addition of Test Article. Stock solutions of Odilomycin A or comparator were diluted in the appropriate media to give a maximum starting concentration of 50 μg/mL in the assay. 50 μL of medium was dispensed into each well in columns two to 12 of a 96 well plate. 100 μL of the appropriate test compound solution (100 μg/mL) was dispensed into each well in column one. In the case of M. catarrhalis, M. haemolytica and P. multocida these values were doubled (a final assay volume of 200 μL was used). […] Columns 11 and 12 served as positive (no drug or test article, inoculum added), and negative (no drug, test article, or inoculum added) growth controls respectively.
Addition of Bacterial Strains. 50 μL of each inoculum suspension was added to the appropriate wells, resulting in a final volume of 100 μL consisting of 50 μL diluted compound or diluents, and 50 μL of inoculum or broth alone.

[8] = P. aeruginosa multiresistant clinical isolate 5618
[9] = P. aeruginosa multiresistant clinical isolate 35170
[10] = P. aeruginosa multiresistant clinical isolate 42162
[11] = P. aeruginosa multiresistant clinical isolate 401681
[12] = P. aeruginosa multiresistant clinical isolate 512232
[13] = S. aureus multiresistant clinical isolate 16666
[14] = S. aureus multiresistant clinical isolate 20364
[15] = S. aureus multiresistant clinical isolate 20681
[16] = S. aureus multiresistant clinical isolate 21840
[17] = S. aureus multiresistant clinical isolate 23305
[18] = mice, S. aureus 5 log10 CFU/mouse IP, Linezolid 12.5 mg/kg PO at 0 hr, n=6

Compound | MIC antibiotic alone [1] [µg/mL] | Susceptibility of isolate to antibacterial (R/S/I) [2, 8] | Susceptibility of isolate to antibacterial (R/S/I) [2, 9] | Susceptibility of isolate to antibacterial (R/S/I) [2, 10] | Susceptibility of isolate to antibacterial (R/S/I) [2, 11] | Susceptibility of isolate to antibacterial (R/S/I) [2, 12] | Susceptibility of isolate to antibacterial (R/S/I) [3, 13] | Susceptibility of isolate to antibacterial (R/S/I) [3, 14] | Susceptibility of isolate to antibacterial (R/S/I) [3, 15] | Susceptibility of isolate to antibacterial (R/S/I) [3, 16] | Susceptibility of isolate to antibacterial (R/S/I) [3, 17] | also measured
CO[C@H]1/C=C/O[C@@]2(C)Oc3c(C)c(O)c4c(O)c(c(/C=N/N5CCN(C)CC5)c(O)c4c3C2=O)NC(=O)/C(C)=C\C=C\[C@H](C)[C@H](O)[C@@H](C)[C@@H](O)[C@@H](C)[C@H](OC(C)=O)[C@@H]1C [Rifampicin] | 0.012 | – | – | – | – | – | – | – | – | – | – | –
O=C(O)c1cn(C2CC2)c2cc(N3CCNCC3)c(F)cc2c1=O [Ciprofloxacin, ciprofloxacin] | 0.31 | – | – | – | – | – | – | – | – | – | – | –
CCC[C@@H]1C[C@@H](C(=O)N[C@@H]([C@H]2O[C@H](SC)[C@H](O)[C@@H](O)[C@H]2O)[C@H](C)Cl)N(C)C1 [Clindamycin] | – | R | R | R | R | R | R | R | S | S | R | –
CC(=O)NC[C@H]1CN(c2ccc(N3CCOCC3)c(F)c2)C(=O)O1 [Linezolid, reference compound] | – | – | – | – | – | – | S | S | S | S | S | Survival of all treated mice ([4]; S. aureus infection, linezolid 12.5 mg/kg PO): survived up to 5 days after infection; Animal deaths Day 0 [4, 18]: 0; Animal deaths Day 1 [4, 18]: 0; Animal deaths Day 2 [4, 18]: 0; Animal deaths Day 3 [4, 18]: 0; Animal deaths Day 4 [4, 18]: 0; Animal deaths Day 5 [4, 18]: 0
NC[C@H]1O[C@H](O[C@H]2[C@H](O)[C@@H](O[C@H]3O[C@H](CO)[C@@H](O)[C@H](N)[C@H]3O)[C@H](N)C[C@@H]2N)[C@H](N)C[C@@H]1O [Tobramycin, reference compound] | – | – | – | – | – | – | – | – | – | – | – | Survival of all treated mice [5]: survived up to 5 days after infection
CC1(C)S[C@@H]2[C@H](NC(=O)[C@H](N)c3ccccc3)C(=O)N2[C@H]1C(=O)O [Ampicillin] | 0.15 | – | – | – | – | – | – | – | – | – | – | –
CC[C@H]1OC(=O)[C@H](C)[C@@H](O[C@H]2C[C@@](C)(OC)[C@@H](O)[C@H](C)O2)[C@H](C)[C@@H](O[C@@H]2O[C@H](C)C[C@H](N(C)C)[C@H]2O)[C@](C)(O)C[C@@H](C)C(=O)[C@H](C)[C@@H](O)[C@]1(C)O [Erythromycin] | – | R | R | R | R | R | R | R | S | S | R | –
NC[C@H]1O[C@H](O[C@H]2[C@H](O)[C@@H](O[C@H]3O[C@H](CO)[C@@H](O)[C@H](N)[C@H]3O)[C@H](N)C[C@@H]2N)[C@H](O)[C@@H](O)[C@@H]1O [Kanamycin] | 0.62 | – | – | – | – | – | – | – | – | – | – | MIC antibiotic alone [6]: 1.56 µg/mL; Combinations Odilomycin/antibiotic: Odilomycin concentration ([6]; K. pneumoniae ATCC 43816): 6.25 µg/mL; Combinations Odilomycin/antibiotic: antibiotic concentration ([6]; K. pneumoniae ATCC 43816, antibiotic part of the inhibitory combination with Odilomycin A): 0.39 µg/mL
C[C@@H](O)[C@H]1C(=O)N2C(C(=O)O)=C(SCCN=CN)C[C@H]12 [Imipenem] | – | R | R | R | S | R | – | – | – | – | – | –
CN(C)[C@@H]1C(O)=C(C(N)=O)C(=O)[C@@]2(O)C(O)=C3C(=O)c4c(O)cccc4[C@@](C)(O)[C@H]3C[C@@H]12 [Tetracycline] | 0.78 | – | – | – | – | – | – | – | – | – | – | –
CO[C@@]1(NC(=O)Cc2cccs2)C(=O)N2C(C(=O)O)=C(COC(N)=O)CS[C@@H]21 [Cefoxitin] | – | – | – | – | – | – | R | R | R | S | I | –
CN[C@H](CC(C)C)C(=O)N[C@H]1C(=O)N[C@@H](CC(N)=O)C(=O)N[C@H]2C(=O)N[C@H]3C(=O)N[C@H](C(=O)N[C@H](C(=O)O)c4cc(O)cc(O)c4-c4cc3ccc4O)[C@H](O)c3ccc(c(Cl)c3)Oc3cc2cc(c3O[C@@H]2O[C@H](CO)[C@@H](O)[C@H](O)[C@H]2O[C@H]2C[C@](C)(N)[C@H](O)[C@H](C)O2)Oc2ccc(cc2Cl)[C@H]1O [Vancomycin, vancomycin] | 0.78 | – | – | – | – | – | S | S | S | S | S | MIC ([7]; ATCC13709): 0.78 µg/mL (≈ 0.538 µM); MIC ([7]; ATCC25923): 0.78 µg/mL (≈ 0.538 µM); MIC ([7]; ATCCBAA1556 / USA300): 0.78 µg/mL (≈ 0.538 µM)
C[C@H]1[C@H](NC(=O)/C(=N\OC(C)(C)C(=O)O)c2csc(N)n2)C(=O)N1S(=O)(=O)O [Aztreonam] | – | S | R | I | I | R | – | – | – | – | – | –
Gentamicin | 0.078 | R | R | R | R | R | R | S | S | S | R | Combinations Odilomycin/antibiotic: Odilomycin concentration ([1]; S. aureus ATCC 25923, Odilomycin A part of the inhibitory combination with the labelled antibiotic): 0.19 µg/mL; Combinations Odilomycin/antibiotic: antibiotic concentration ([1]; S. aureus ATCC 25923, antibiotic part of the inhibitory combination with Odilomycin A): 0.039 µg/mL; Synergy with Odilomycin A ([1]; S. aureus ATCC 25923, labelled antibiotic combined with Odilomycin A): synergistic interaction; MIC antibiotic alone [6]: 0.39 µg/mL; Combinations Odilomycin/antibiotic: Odilomycin concentration ([6]; K. pneumoniae ATCC 43816): 3.12 µg/mL; Synergy with Odilomycin A ([6]; K. pneumoniae ATCC 43816, labelled antibiotic combined with Odilomycin A): synergistic interaction
